Laboratory results: patent publication US12240838B2, “Inhibiting agents for Bruton's tyrosine kinase” (BIOGEN MA INC., priority 2019, dated 2025)

Tests used:
BTK [1] = target: T1, BTK (Homo sapiens (Human), UniProt Q06187); test: In Vitro PD Assay in Human Whole Blood (pBTK assay); format: cell-based; settings: 37° C. for 30 min, 50% inhibition of ECL signal
Procedure, shortened: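 Heparinized human whole blood was spiked with serially diluted compound (0.1% DMSO final) and held 30 min at 37 °C. Samples were then lysed with protease and phosphatase inhibitors. Total BTK was captured and phosphotyrosine detected, with DMSO-only lysates ± phosphatase inhibitors serving as high and low controls.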

BTK [2] = target: T1, BTK; test: In Vitro BTK Kinase Assay: BTK-POLYGAT-LS ASSAY; format: biochemical; settings: ATP 10 μM, polyGAT 100 nM, BTK 0.25 nM, 30 minutes
Procedure, shortened: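 BTK (0.25 nM final) with 10 μM ATP and 100 nM polyGAT in pH 7.5 Tris buffer with MgCl2, DTT, Triton X-100 and casein; compound titrated 4-fold. Reaction 30 min, stopped with EDTA. Phosphorylation detected by TR-FRET with Tb-PY20 antibody after 45 min at room temperature; IC50 reported.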

T1 sequence (Q06187 whole entry): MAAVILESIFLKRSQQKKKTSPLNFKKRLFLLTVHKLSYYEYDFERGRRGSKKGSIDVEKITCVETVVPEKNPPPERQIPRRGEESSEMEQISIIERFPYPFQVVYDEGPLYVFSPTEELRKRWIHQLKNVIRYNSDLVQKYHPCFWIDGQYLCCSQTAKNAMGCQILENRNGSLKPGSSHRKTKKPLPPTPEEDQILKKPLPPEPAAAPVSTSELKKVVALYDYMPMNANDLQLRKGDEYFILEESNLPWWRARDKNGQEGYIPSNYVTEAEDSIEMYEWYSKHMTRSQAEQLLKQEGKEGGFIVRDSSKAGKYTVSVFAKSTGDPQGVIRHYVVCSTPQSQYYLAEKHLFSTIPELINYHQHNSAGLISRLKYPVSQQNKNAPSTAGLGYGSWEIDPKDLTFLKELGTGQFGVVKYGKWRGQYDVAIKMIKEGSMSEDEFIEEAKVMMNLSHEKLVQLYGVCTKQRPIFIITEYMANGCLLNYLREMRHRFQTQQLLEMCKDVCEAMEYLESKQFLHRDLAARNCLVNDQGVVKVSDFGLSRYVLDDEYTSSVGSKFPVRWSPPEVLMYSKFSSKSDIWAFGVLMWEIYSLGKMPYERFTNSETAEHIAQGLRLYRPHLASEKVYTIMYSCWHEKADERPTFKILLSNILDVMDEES

SMILES | IC50 (BTK [1]) [µM] | IC50 (BTK [2]) [µM]
Cc1cc(-c2ccnc(NC(=O)C3CC3)c2)ccc1CNC(=O)c1cn(C(C)(C)C)nn1 [Compound 89, 1-(tert-butyl)-N-(4-(2-(cyclopropanecarboxamido)pyridin-4-yl)-2-methylbenzyl)-1H-1,2,3-triazole-4-carboxamide] | 0.1 to 0.5 | 0.001 to 0.01
Cc1cc(-c2ccnc(NC(=O)C3CC3)c2)ccc1CNC(=O)c1nnc(C(C)(C)C)o1 [Compound 90, 5-(tert-butyl)-N-(4-(2-(cyclopropanecarboxamido)pyridin-4-yl)-2-methylbenzyl)-1,3,4-oxadiazole-2-carboxamide] | 0.1 to 0.5 | 0.001 to 0.01
C[C@@H](NC(=O)c1nc(C(C)(C)C)no1)c1ccc(-c2ccnc(NC(=O)C3CC3)c2)cc1Cl [Compound 91, (R)-3-(tert-butyl)-N-(1-(2-chloro-4-(2-(cyclopropanecarboxamido)pyridin-4-yl)phenyl)ethyl)-1,2,4-oxadiazole-5-carboxamide] | 0.1 to 0.5 | ≤ 0.001
CC(C)(C)c1noc(C(=O)N[C@@H]2CCN(CC(F)(F)F)Cc3cc(-c4ccnc(NC(=O)C5CC5)c4)ccc32)n1 [Compound 92, (R)-3-(tert-butyl)-N-(8-(2-(cyclopropanecarboxamido)pyridin-4-yl)-2-(2,2,2-trifluoroethyl)-2,3,4,5-tetrahydro-1H-benzo[c]azepin-5-yl)-1,2,4-oxadiazole-5-carboxamide] | 0.1 to 0.5 | ≤ 0.001
Cc1cc(-c2ccnc(NC(=O)C3CC3)c2)ccc1[C@@H](C)NC(=O)c1nc(C(C)(C)C)no1 [Compound 93, (R)-3-(tert-butyl)-N-(1-(4-(2-(cyclopropanecarboxamido)pyridin-4-yl)-2-methylphenyl)ethyl)-1,2,4-oxadiazole-5-carboxamide] | 0.1 to 0.5 | ≤ 0.001
Cc1c(CNC(=O)c2nc(C(C)(C)C)no2)ccc(-c2ccnc(NC(=O)C3CC3)c2)c1F [Compound 94, 3-(tert-butyl)-N-(4-(2-(cyclopropanecarboxamido)pyridin-4-yl)-3-fluoro-2-methylbenzyl)-1,2,4-oxadiazole-5-carboxamide] | ≤ 0.1 | ≤ 0.001
Cc1cc(-c2ccnc(NC(=O)C3CC3)c2)ccc1CNC(=O)c1ncc(C(C)(C)C)o1 [Compound 98, 5-(tert-butyl)-N-(4-(2-(cyclopropanecarboxamido)pyridin-4-yl)-2-methylbenzyl)oxazole-2-carboxamide] | 0.5 to 10 | 0.001 to 0.01
Cc1cc(-c2ccnc(NC(=O)C3CC3)c2)ccc1CNC(=O)c1ccn(C(C)(C)C)n1 [Compound 99, 1-(tert-butyl)-N-(4-(2-(cyclopropanecarboxamido)pyridin-4-yl)-2-methylbenzyl)-1H-pyrazole-3-carboxamide] | 0.5 to 10 | 0.001 to 0.01
Cc1c(-c2ccnc(NC(=O)C3CC3)c2)ccc(CNC(=O)c2nc(C(C)(C)C)no2)c1F [Compound 100, 3-(tert-butyl)-N-(4-(2-(cyclopropanecarboxamido)pyridin-4-yl)-2-fluoro-3-methylbenzyl)-1,2,4-oxadiazole-5-carboxamide] | 0.5 to 10 | ≤ 0.001
Cc1c(-c2ccnc(NC(=O)C3CC3)c2)ccc(CNC(=O)c2noc(C(C)(C)C)n2)c1F [Compound 101, 5-(tert-butyl)-N-(4-(2-(cyclopropanecarboxamido)pyridin-4-yl)-2-fluoro-3-methylbenzyl)-1,2,4-oxadiazole-3-carboxamide] | 0.5 to 10 | ≤ 0.001
Cc1cc(CNC(=O)c2noc(C(C)(C)C)n2)c(F)cc1-c1ccnc(NC(=O)C2CC2)c1 [Compound 102, 5-(tert-butyl)-N-(4-(2-(cyclopropanecarboxamido)pyridin-4-yl)-2-fluoro-5-methylbenzyl)-1,2,4-oxadiazole-3-carboxamide] | 0.5 to 10 | 0.01 to 1
Cc1cc(-c2cc(NC(=O)C3CC3)ncc2F)c(F)cc1CNC(=O)c1noc(C(C)(C)C)n1 [Compound 103, 5-(tert-butyl)-N-(4-(2-(cyclopropanecarboxamido)5-fluoropyridin-4-yl)-5-fluoro-2-methylbenzyl)-1,2,4-oxadiazole-3-carboxamide] | 0.1 to 0.5 | ≤ 0.001
CC(C)(C)c1nc(C(=O)NCc2cc(F)c(-c3ccnc(NC(=O)C4CC4)c3)cc2Cl)no1 [Compound 104, 5-(tert-butyl)-N-(2-chloro-4-(2-(cyclopropanecarboxamido)pyridin-4-yl)-5-fluorobenzyl)-1,2,4-oxadiazole-3-carboxamide] | 0.1 to 0.5 | ≤ 0.001
Cc1cc(-c2cc(NC(=O)C3CC3)ncc2F)ccc1CNC(=O)c1noc(C(C)(C)C)n1 [Compound 106, 5-(tert-butyl)-N-(4-(2-(cyclopropanecarboxamido)5-fluoropyridin-4-yl)-2-methylbenzyl)-1,2,4-oxadiazole-3-carboxamide] | 0.5 to 10 | ≤ 0.001
CC(C)(C)c1nc(C(=O)NCc2ccc(-c3ccnc(NC(=O)C4CC4)c3)cc2OC(F)(F)F)no1 [Compound 107, 5-(tert-butyl)-N-(4-(2-(cyclopropanecarboxamido)pyridin-4-yl)-2-(trifluoromethoxy)benzyl)-1,2,4-oxadiazole-3-carboxamide] | ≤ 0.1 | ≤ 0.001
